“Also recorded” adds a separate entry of the source. Numbered stars: 1 amine (or outer) side, 2 acyl side, 3 side chain; on linkers, the order of the positions; unused ones are H or OH. Bridge positions count the residues as written; N and C are the ends. Square brackets hold non-standard residues; d marks the D form. Ends that are not written are not given here. GlyBU(C4) = Gly building unit (N-alpha-functionalized Gly) carrying a C4 alkyl chain (n = m = 4), bridged through a urea group; CO = O=C([*:1])[*:2]

One assay concerns HCT116 cells. Description: Xenograft tumor model, HCT116 cells inoculated subcutaneously in nude mice. Particulars: s.c., 100 μM, 0.25 mg/30 gm, 3 times/week, from day of inoculation or 4 days later, terminated after 20 days. Type of assay: in vivo. The protocol: HCT116 cells (1×10^6) were injected subcutaneously to nude mice. Pc(4-4) (100 μM; 0.25 mg/30 gm) was subcutaneously injected, either at the same day of tumor cell inoculation or 4 days later. The inhibitor was applied repeatedly 3 times/week for 3 weeks. Mice were weighted every 3 days and tumor size was measured. Mice were sacrificed after 21 days. This is a representative of three times performed experiments. […] Tumor volume measurements of HCT116 cells inoculated into nude mice. Tumors were weighed and measured for size at the indicated time points and tumor volume was calculated. Error bars show s.d.; * P<0.05; *** P<0.001; while ns are considered as not significant.
Another cell lines used in the experiment was HCT-116, an aggressive colon cancer cell line overexpressing oncogenes including PAR4.
(§1) Male athymic nude mice aged 6-7 weeks were pre-implanted subcutaneously with the relevant cells (1×10^6 cells): either with HCT-116 or with RKO/hPar4 cells.
The inhibitor was injected at the site of the tumor at the day of inoculation. In an additional group, mice implanted with HCT-116 were administered with the inhibitor at day 4 after inoculation. […]
Mice were monitored for tumor size by external caliber measurements (length and width) on days 7, 14, 22 and for up to 32 days, if tumor burden allowed. Tumor volume (V) was calculated by V=L×W^2×0.5, where L is length and W is width. […]

For another assay, the system named is Lovo cancer cell-line. Description: Wound-scratch migration assay, Lovo cell monolayers. Type of assay: cell-based. Particulars: AYPGKF activated, 24 hr, 150 μM and 300 μM, FIG. 8D-8K. The protocol:
HEK293 cells were transiently transfected with flg-Par4 followed by AYPGKF PAR4 activation in the presence and absence of PAR4c (4-4) within the range of 50 nM-150 μM. IP of cell lysates following different periods of activation was carried out using anti flg abs. Detection of Akt was performed by anti Akt abs. β-actin serves as a control gene for loading. […] Matrigel invasion before and after AYPGKF PAR4 activation and in the presence and absence of PAR4 c(4-4) inhibitor in the activated PAR4 cells. A range between 50 nM-150 μM PAR4 c(4-4) inhibitor was applied. While ample Matrigel invasion is seen following PAR4 activation, this was attenuated in the presence of the inhibitor in all the concentrations used, similar to control prior to PAR4 activation. FIG. 8C—Histograms represent quantification of the cells/HPF invaded the Matrigel layer. Unpaired Student's t test was used. This experiment is a representative of three independent experiments performed in triplicates. FIG. 8D-8K show Wound-scratch migration assay. Lovo cancer cell-line was grown to confluence. Then, an equal wound scratch was introduced to Lovo cell monolayers. Monolayers were serum starved overnight and PAR4 was activated or not with AYPGKF. One hour prior to activation PAR4 c(4-4), either at 150 μM or 300 μM concentrations was added to the monolayers.
Migration was evaluated by “wound scratch assay” applied. […]

Another assay relates to RKO/hPar4 cells. The experiment in a line: Xenograft tumor model, RKO/hPar4 clone inoculated subcutaneously in nude mice. Type of assay: in vivo. Particulars: for tumor growth / tumor size: RKO/hPar4 in nude mice, s.c. at tumor site, 100 μM, 0.25 mg/30 gm, 3 times/week, from day of inoculation or 4 days later, 32 days. On the procedure: FIG. 9A. A clone of RKO/PAR4 overexpressing cells (1×10^6) were injected subcutaneously into nude mice. PAR4 c(4-4) (100 μM; 0.25 mg/30 gm) was subcutaneously injected, at the site of the tumor either at the same day of RKO/PAR4 clone inoculation or 4 days later. The inhibitor was applied repeatedly 3 times/week for 3 weeks. Mice were weighted every 3 days and tumor size was measured. Mice were sacrificed after 32 days. […] Tumors were weighed and measured for size at the indicated time points and tumor volume was calculated05. FIG. 9C. qPCR of a representative RKO stable clone of PAR4. Error bars show s.d.; *** P<0.001. FIG. 9D. IHC of RKO/PAR4 derived tumors. Immunohistochemistry of RKO compared to small tumors in the presence of PAR4 c(4-4) inhibitor. Levels of proliferation in the large and small tumors were indicated by applying anti ki67 abs (FIG. 9Da and 9Db). For apoptosis, application of active caspase-3 Abs were applied (FIG. 9Dc and 9Dd). […] FIG. 9E. Histograms representing positive IHC in each treatment group. […] Hematoxilyn & eosin staining of large (left panel) and small (right panel) tumors distinctly indicate to the appearance of a wide basement membrane in the small tumors whereas a thinner and cell-invaded basement membrane is observed in large tumors.
We have generated stable clones overexpressing PAR4 in RKO cells, a non-aggressive colon cancer cell line (expressing wt p53), by infecting the cells with HA-hPar4 virus. This was followed by selection using Geneticin G418 resistance (500 μg/ml) to produce RKO/hPar4 clones. Clone efficiency generation was evaluated using qPCR analyses.
as §1
The inhibitor was injected at the site of the tumor at the day of inoculation. In an additional group, mice implanted with HCT-116 were administered with the inhibitor at day 4 after inoculation. The inhibitor ([…]) was applied repeatedly 3 times/week to all mice after the first administration of the inhibitor.
Mice were monitored for tumor size by external caliber measurements (length and width) on days 7, 14, 22 and for up to 32 days, if tumor burden allowed. Tumor volume (V) was calculated by V=L×W^2×0.5, where L is length and W is width. At the end of the experiment, mice were euthanized and tumors were removed, weighed and fixed in formalin for histology. All mice survived to the end of the experiment. All animal experiments were approved by the animal committee of the Hebrew University (MD-19-15924). In fact, for the xenograft tumor formation we have utilized two types of cell lines; the HCT116 cells, an aggressive colon cancer cell line, overexpressing oncogenes among of which is also PAR4, (FIGS. 10A and 10B) and clone/s overexpressing Par4, generated in RKO cell line; RKO/hPar4 cells (FIG. 9A-9C). HCT116 (1×10^6) and RKO/hPar4 (1×10^6) clone/s were inoculated subcutaneously in nude mice. The Pc(4-4) cyclic peptide was injected at the site of the tumor (100 μM; 0.25 mg/30 gram mouse), either at the time of tumor cell injection or 4 days after tumor-cell implantation. The Pc(4-4) cyclic peptide was applied repeatedly 3 times/week. The HCT116 cell inoculation generated large tumors and were terminated after 20 days, whereas the RKO/Par4 inoculation developed tumors on a slower pace and were terminated after 32 days. […] The powerful inhibition of tumor growth was seen regardless of whether the Pc(4-4) cyclic peptide was applied at the same time of tumor inoculation or applied 4 days later. This was obtained irrespective of using an aggressive colon cancer cell line or stable RKO/hPar4 clone/s, overexpressing PAR4 (FIGS. 9A and 9B).

Setting [1] is: RKO/PAR4 derived small tumors generated in the presence of the inhibitor vs large tumors.

With “Pc(4-4): backbone cyclic analog of Formula I, m=n=4, ring size 30 atoms (S[GlyBU(C4)]EFRDK[GlyBU(C4)]; bridge 2-8 via CO; not fully specified; printed as SZ1EFRDKX3)”, the “tumor growth / tumor size” value with HCT116 cells is listed as “significantly smaller tumors; also recorded: potently inhibits”; in the assay on HCT116 cells (listed as PAR4 (4-4)) it was “much smaller tumors”; with RKO/hPar4 cells, “significantly smaller tumors”; with RKO/hPar4 cells (listed as PAR4 c(4-4)) it was “potently inhibits”; in the assay on RKO/hPar4 cells (listed as PAR(4-4)), “markedly small tumors”. Moreover, the “inhibition of migration/proliferation (wound scratch)” value in the assay with Lovo cancer cell-line is reported as “marked inhibition”; in the assay with Lovo cancer cell-line (listed as PAR4 c(4-4)) it was “inhibits”. Besides, the “apoptosis in tumors (active caspase-3 IHC)” value is recorded as “induced levels of active caspase-3” in the assay with RKO/hPar4 cells (setting [1]) and “high levels of active caspase-3” with RKO/hPar4 cells (RKO/PAR4 derived small tumors generated in the presence of the inhibitor vs large tumors, listed as PAR4 c(4-4)). Also, the “proliferation in tumors (ki67 IHC)” value in the assay on RKO/hPar4 cells (setting [1]) is reported as “little”. Moreover, in the assay on RKO/hPar4 cells (RKO/Par4 stable clones in nude mice), the “difference between treatment started at the day of inoculation or 4 days after inoculation” value is “no statistical difference”.

The values are drawn from patent US20230331781A1, “PAR4 DERIVED PEPTIDES, ANALOGS AND USES THEREOF” (Yissum Research Development Company of the Hebrew …, priority 2019, published 2023).
